{"source": "patent US20240052423A1", "about": "“METHODS OF IDENTIFYING A TUMOR THAT IS SENSITIVE TO TREATMENT WITH TALAZOPARIB AND METHODS OF TREATMENT THEREOF” (PFIZER INC., priority 2020, published 2024)", "format_in_all_cases": "in vivo, human", "key": {"[1]": {"system": "HER2-negative advanced or metastatic breast cancer with a non-BRCA1/2 mutation in homologous recombination", "assay": "Phase II clinical trial of talazoparib, best response by RECIST v.1.1, breast cancer cohort", "conditions": "Breast Cancer (N = 13), 1 mg orally daily", "experimental": "(§1) A phase II clinical trial of the PARP inhibitor talazoparib in BRCA1 and BRCA2 wild-type patients with HER2-negative advanced breast cancer or other solid tumors with a mutation in homologous recombination was conducted as shown in FIG. 1. Eligible patients were adults (≥18 years old) with HER2-negative advanced or metastatic breast cancer that had progressed on at least 1 prior line of therapy for metastatic disease. Eligible patients also included adults (≥18 years old) with advanced or metastatic solid tumors beyond breast cancer that had progressed on at least one prior line of therapy. Patients were required to have no pathogenic mutations in either BRCA1 or BRCA2 genes on germline or somatic testing. They were required to have a pathogenic or likely pathogenic mutation in a HR-pathway associated gene detected on multiplex germline or somatic testing. These genes include: PALB2, CHEK2, ATM, NBN, BARD1, BRIP1, RAD50, RAD51C, RAD51D, MRE11, ATR, PTEN, Fanconi anemia complementation group of genes (FANCA, FANCC, FANCD2, FANCE, FANCF, FANCG, FANCL), plus other HR-related genes at the discretion of the primary investigators. Measurable disease by RECIST version 1.1 was required. There was no upper limit on the number of prior systemic therapies allowed prior to study entry. Patients were not allowed to have progressed during therapy with a platinum agent or within 8 weeks of discontinuing a platinum agent. Subjects were required to have an Eastern Cooperative Oncology Group (ECOG) performance status (PS) of 0-2 and adequate organ function based on screening laboratory values of liver, renal and hematologic parameters. The ability to take oral medications was required. Sexually active patients of childbearing potential were mandated to use contraception and females of childbearing age were tested for pregnancy at screening; females were not permitted to participate if pregnant or nursing and were tested for pregnancy at screening. Patients were excluded if they previously took any PARP inhibitor, had taken any anti-cancer therapy within 21-days of study entry, received radiation therapy within 14 days of study entry, had active brain metastasis requiring treatment or leptomeningeal disease. Patients with human immunodeficiency virus infection or active hepatitis C or hepatitis B viral infections were excluded. Also, patients requiring prolonged hospitalization, major surgery or receiving other investigational agent within 21 days prior to study entry were excluded. Additional key exclusion criteria were: other medical co-morbidity likely to interfere with study participation eg. infection grade ≥3 CTCAE version 4, or requiring parenteral antibiotics within 7 days, or known hypersensitivity to talazoparib. Talazoparib was administered at 1 mg orally daily continuously, taken whole, at approximately the same time each day. Treatment cycles lasted 28 days. Patients were evaluated on day 1 of each treatment cycle by physician assessment including medical history, physical examination, laboratory values (complete blood count (CBC) and comprehensive metabolic panel), vital signs, ECOG PS assessment and urine pregnancy test (for women of childbearing age only). Day 14 physician assessment was required for the first cycle and CBCs were required weekly for the first cycle, then prior to start of each subsequent cycle. Treatment continued until disease progressed or unacceptable toxicity. Safety was assessed at each physician visit and monitored continuously by laboratory values, patient reporting and patient diary. Adverse events (AEs) and severe AEs (SAEs) were graded according to CTCAE version 4.0. SAEs grade ≥3 were reported to the Data Safety Monitoring Committee. Tumor evaluation was performed at baseline and after every two cycles and responses were assessed according to RECIST version 1.1. After six cycles, tumor evaluations were allowed every 3 cycles per physician discretion. […]"}, "[2]": {"system": "other solid tumors with a mutation in homologous recombination", "assay": "Phase II clinical trial of talazoparib, best response by RECIST v.1.1, non-breast cancer cohort", "conditions": "Non-Breast Cancer (N = 7), 1 mg orally daily", "experimental": "as §1"}, "[3]": {"system": "HER2-negative advanced breast cancer or other solid tumors with a mutation in homologous recombination", "assay": "Phase II clinical trial of talazoparib, best response by RECIST v.1.1, combined cohorts", "experimental": "as §1"}, "[4]": {"conditions": "Combined (N = 20), 1 mg orally daily, RECIST v.1.1"}}}
{"smiles": "Cn1ncnc1[C@H]1c2n[nH]c(=O)c3cc(F)cc(c23)N[C@@H]1c1ccc(F)cc1", "note": "[talazoparib, (8S,9R)-5-fluoro-8-(4-fluorophenyl)-9-(1-methyl-1H-1,2,4-triazol-5-yl)-8,9-dihydro-2H-pyrido[4,3,2-de]phthalazin-3(7H)-one]", "values": [{"measurement": "ORR (CR + PR)", "setting": "[1]; 95% CI: 9-61%", "value": "4 (31%); n (%)"}, {"measurement": "CBR (CR + PR + SD ≥ 6 mos)", "setting": "[1]; 95% CI: 21-81%", "value": "7 (54%); n (%)"}, {"measurement": "Complete Response (CR), response rate", "setting": "[1]; RECIST v.1.1", "value": "0 (0%) n (%)"}, {"measurement": "Partial Response (PR), response rate", "setting": "[1]; RECIST v.1.1", "value": "4 (31%) n (%)"}, {"measurement": "Progressive Disease (PD), response rate", "setting": "[1]; RECIST v.1.1", "value": "3 (23%) n (%)"}, {"measurement": "Stable Disease (SD), response rate", "setting": "[1]; RECIST v.1.1", "value": "6 (46%) n (%)"}, {"measurement": "CBR (CR + PR + SD ≥ 6 mos)", "setting": "[2]", "value": "2 (29%); n (%)"}, {"measurement": "ORR (CR + PR)", "setting": "[2]; 95% CI: 0-41%", "value": "0 (0%); n (%)"}, {"measurement": "Complete Response (CR), response rate", "setting": "[2]; RECIST v.1.1", "value": "0 (0%) n (%)"}, {"measurement": "Partial Response (PR), response rate", "setting": "[2]; RECIST v.1.1", "value": "0 (0%) n (%)"}, {"measurement": "Progressive Disease (PD), response rate", "setting": "[2]; RECIST v.1.1", "value": "3 (43%) n (%)"}, {"measurement": "Stable Disease (SD), response rate", "setting": "[2]; RECIST v.1.1", "value": "4 (57%) n (%)"}, {"measurement": "ORR (CR + PR)", "setting": "[3]; Combined (N = 20), 1 mg orally daily, 95% CI: 6-44%", "value": "4 (20%); n (%)"}, {"measurement": "CBR (CR + PR + SD ≥ 6 mos)", "setting": "[3]; Combined (N = 20), 1 mg orally daily, 95% CI: 23-68%", "value": "9 (45%); n (%)"}, {"measurement": "Complete Response (CR), response rate", "setting": "[3]; [4]", "value": "0 (0%) n (%)"}, {"measurement": "Partial Response (PR), response rate", "setting": "[3]; [4]", "value": "4 (20%) n (%)"}, {"measurement": "Progressive Disease (PD), response rate", "setting": "[3]; [4]", "value": "6 (30%) n (%)"}, {"measurement": "Stable Disease (SD), response rate", "setting": "[3]; [4]", "value": "10 (50%) n (%)"}, {"measurement": "partial responses observed in the first stage", "setting": "[3]; first stage of 10 patients", "value": "two"}]}
